Article PMC8955265, “Systematic Discovery of FBXW7-Binding Phosphodegrons Highlights Mitogen-Activated Protein Kinases as Important Regulators of Intracellular Protein Levels” (International Journal of Molecular Sciences, 2022)

System: FBXW7
Assay: Ratiometric EGFP/DsRed protein degradation assay with degron probes
Assay type: cell-based, human
Details: putative degron motif in EGFP-fused probe with AAKG2 MAPK docking motif; HEK293T, 48 h after transfection, EGFP/DsRed ratio with and without FBXW7 plasmid; search cycles 1-4
Source text: In order to be able to test putative phosphodegron motifs, a ratiometric protein level monitoring method was adapted to monitor MAPK controlled FBXW7 mediated protein degradation. Briefly, intact DsRed and an EGFP-chimera were expressed in HEK293T cells in equal amounts from an expression plasmid, giving an EGFP/DsRed fluorescence ratio close to one under non-degrading conditions. EGFP was fused to a probe comprised of a putative degron sequence and a known MAPK binding docking motif. EGFP signal is expected to diminish faster than DsRed in cells with more FBXW7 if the probe responded to degradation.
We started out from an intentionally general consensus motif of FBXW7 degrons, inspired by the liberal [TS]P..[TS]P pattern defined for yeast Cdc4 substrates, and scanned the human disordered part of the proteome using SliMSearch4 (the disorder score cut-off was 0.4 and flank length was 5). In all, 22 motifs from this list were subjectively chosen and tested in the ratiometric degradation assay giving only 5 positives (see Supplementary Table S1). Based on the results of this first round, by taking information both from the identified positives and negatives, the consensus motif definition was narrowed to requiring a proline at P + 2, but motifs were allowed to have a phospho-mimicking residue (D or E) at P + 4 because it had been formerly reported that this second phosphorylatable residue may be replaced by aspartate or glutamate. […] In the third round, hydrophobic amino acids were more strictly required at positions −1/−2 and P − 1/2/3 positions were further narrowed and P + 4 position was relaxed based on the identified negatives, which gave a higher hit rate (4 out of 6). This third round gave functional motifs at a good rate, but the used motif definition was very restrictive compared to other known motifs. Finally, in the fourth round, we gave up using an optimal consensus and established the positional relaxation model. […] Hits on this final, most predictive list are presented in Supplementary Table S2. All entries were filtered for motif locations by UniProt annotations, discarding all enzyme-inaccessible (e.g., extracellular) instances. Motifs that had any overlapping PFAM domain indicated were manually assessed using the AlphaFold EBI website. Out of these, only motifs that were highly accessible and located outside of confidently predicted folded domains were kept. We also added kinase consensus compatibility to every motif and the number of experiments where phosphorylation could be detected from PhosphoSitePlus.
The chimera degron module was ordered from IDT as gene Block (gBlock). It consisted of a coiled coil dimerization motif (GCN4: EELLSKNYHLENEVARLKK) to increase sensitivity by allowing multivalent binding, a MAPK binding docking motif (AAKG2: KKNASQKRRSLRVHIPDL), and the CycECO degron motif. The motifs were separated by Gly-Ser-Asn linkers and the gBlock was designed so that the motifs could be easily changed by using unique sets of restriction endonucleases. The gBlock was sub-cloned into the Gateway pENTR4 entry plasmid (Thermo Fisher, Waltham, MA, USA) using restriction enzymes (SalI and NotI). The pENTR4-chimera and the destination plasmid (MSCV-CMV-DsRed-IRES-EGFP-DEST from Addgene; 41941), [28]) were subjected to gateway cloning using LR clonase II enzyme (Invitrogen) to obtain the first DsRed-EGFP-chimera DNA construct containing the cycECO degron. Oligonucleotides corresponding to different degron sequences and docking motifs were ligated into the DsRed-EGFP-chimera DNA construct. The list of all the oligonucleotides used for cloning is provided in Supplementary Table S3. pcDNA3-FLAG-FBXW7α was a kind gift from Michael Pagano (New York University). The FBXW7 arginine mutant (Arg mutant: R465C; R479Q; R505L) was created using two-step PCR and cloned into the pcDNA3-FLAG plasmid. […]

Sequence	Outcome
AHELPLTPPADPSYPY [SP5, putative FBXW7 degron motif tested as EGFP-fused degradation probe]	Positive (tested positive, where +FBXW7/control protein level ratio was lower than 1)
AIRQSPSPPPEESRG [PDE4A, putative FBXW7 degron motif tested as EGFP-fused degradation probe]	Negative
AKEFAPATPPSTPHNSSV [AKAP11-2nd, putative FBXW7 degron motif tested as EGFP-fused degradation probe]	Negative
APPIPSPPPSPPPSPAPLEP [CAMTA2, putative FBXW7 degron motif tested as EGFP-fused degradation probe]	Positive (tested positive, where +FBXW7/control protein level ratio was lower than 1)
ASPTPPSPPPPPSPPASPSLPP [PP1R37, putative FBXW7 degron motif tested as EGFP-fused degradation probe]	Negative
AVRTPPRTPNIV [KSR2-a, putative FBXW7 degron motif tested as EGFP-fused degradation probe]	Negative
AVVRTPPKSPSSAK [Tau, putative FBXW7 degron motif tested as EGFP-fused degradation probe]	Negative
DLLAALPTPPHNQTEDV [KMT2D-3rd, putative FBXW7 degron motif tested as EGFP-fused degradation probe]	Positive (tested positive, where +FBXW7/control protein level ratio was lower than 1)
DRNVIPDTPPSTPLVPSR [AKAP11-1st, putative FBXW7 degron motif tested as EGFP-fused degradation probe]	Positive (tested positive, where +FBXW7/control protein level ratio was lower than 1)
ELDLMPYTPPQSTPKSA [PBRM1, putative FBXW7 degron motif tested as EGFP-fused degradation probe]	Negative
EQPSHTPPQTPTPPSTPPLGKQ [ARHGAP17, putative FBXW7 degron motif tested as EGFP-fused degradation probe]	Negative
FSYQESPPRSPRRMSFSG [AAKG2, putative FBXW7 degron motif tested as EGFP-fused degradation probe]	Negative
GEAAGSPVPTPPRSPAQEE [Bcl2L12, putative FBXW7 degron motif tested as EGFP-fused degradation probe]	Negative
GEGDRGVSPPPSPFFSAI [FRY, putative FBXW7 degron motif tested as EGFP-fused degradation probe]	Negative
GGHLESPARSLPQRP [FAAP20, putative FBXW7 degron motif tested as EGFP-fused degradation probe]	Negative
GQAATPETPQPSPPGGSGS [HNF4, putative FBXW7 degron motif tested as EGFP-fused degradation probe]	Negative
GSDGASPPASPSIIPR [MAP3K10, putative FBXW7 degron motif tested as EGFP-fused degradation probe]	Negative
IHQAGGSPPASSTSSS [RAPTOR, putative FBXW7 degron motif tested as EGFP-fused degradation probe]	Negative
KHSNSPPLVTPPQSPVSPQPPA [SMTL2, putative FBXW7 degron motif tested as EGFP-fused degradation probe]	Positive (tested positive, where +FBXW7/control protein level ratio was lower than 1)
KMSQPGSPSPKTPTPSTPGDTQ [CHD4, putative FBXW7 degron motif tested as EGFP-fused degradation probe]	Negative
KQFLISPPASPPVGWKQV [RCAN1, putative FBXW7 degron motif tested as EGFP-fused degradation probe]	Negative

Sequence	Outcome
KTGEQTPPHEHICLRDELP [JIP1, putative FBXW7 degron motif tested as EGFP-fused degradation probe]	Negative
LGPVHPTPPPSSPQEP [KMT2D-a, putative FBXW7 degron motif tested as EGFP-fused degradation probe]	Negative
MVQRLGLISPPASQVSTA [GLIS3, putative FBXW7 degron motif tested as EGFP-fused degradation probe]	Negative
NYGARPPPTPPASPPPSV [KMT2E, putative FBXW7 degron motif tested as EGFP-fused degradation probe]	Positive (tested positive, where +FBXW7/control protein level ratio was lower than 1)
PLGPPATPPGSPPCSLL [PKMYT1, putative FBXW7 degron motif tested as EGFP-fused degradation probe]	Negative
PPEESPLSPPPEASRLS [KMT2D-b, putative FBXW7 degron motif tested as EGFP-fused degradation probe]	Negative
PPLQVPPSPPASPPMSPS [PRR36, putative FBXW7 degron motif tested as EGFP-fused degradation probe]	Positive (tested positive, where +FBXW7/control protein level ratio was lower than 1)
PRPPRPPSPPPEPETTD [SETD1B, putative FBXW7 degron motif tested as EGFP-fused degradation probe]	Negative
PSFPPTPPTPPASPPHTPV [EIF4G3, putative FBXW7 degron motif tested as EGFP-fused degradation probe]	Positive (tested positive, where +FBXW7/control protein level ratio was lower than 1)
PSTTVGSHSPPETPVLTR [ZMYND1 or 8, putative FBXW7 degron motif tested as EGFP-fused degradation probe]	Negative
QGQKVGSLTPPSSPKTQRA [AAK1, putative FBXW7 degron motif tested as EGFP-fused degradation probe]	Negative
QGYLSPESSPPASPVPACS [CREB5, putative FBXW7 degron motif tested as EGFP-fused degradation probe]	Negative
QQAPLTPPNTPDPRSPPNPDNIA [Myozenin2, putative FBXW7 degron motif tested as EGFP-fused degradation probe]	Positive (tested positive, where +FBXW7/control protein level ratio was lower than 1)
RPALPATPPATPPAASP [CDT1, putative FBXW7 degron motif tested as EGFP-fused degradation probe]	Positive (tested positive, where +FBXW7/control protein level ratio was lower than 1)
SAVQTPPSPPVSPRVLS [PCARE, putative FBXW7 degron motif tested as EGFP-fused degradation probe]	Negative
SDLDKTPPPSPPPEED [CHD7, putative FBXW7 degron motif tested as EGFP-fused degradation probe]	Negative
SPFHGSSPPQSTPLSPPPLTPK [DOCK5, putative FBXW7 degron motif tested as EGFP-fused degradation probe]	Negative
SPGDSPPGTPPASPPSSAWQ [TBC1D4, putative FBXW7 degron motif tested as EGFP-fused degradation probe]	Negative
SRNHSPSPPVTPTGAA [NHSL1, putative FBXW7 degron motif tested as EGFP-fused degradation probe]	Negative
STKRKPRVSPPASPTLEVE [SH3RF1, putative FBXW7 degron motif tested as EGFP-fused degradation probe]	Negative
